Earlier results in patent US11731951B1, “Water reactivity with natural products” (King Faisal University, priority 2023, dated 2023).

System: Gram-positive bacteria, including multi-resistant and vancomycin-resistant strains
Settings: from "Abyssomicins—A 20-Year Retrospective View"

For C[C@@H]1C[C@H](C)C(=O)/C=C/C2[C@@H](O)[C@H]3OC4=C(C(=O)O[C@@]42C[C@H]3C)C1=O [abyssomicin C], the antibiotic activity is given as “high antibiotic activity”.

In the case of CC1CC(C)C(=O)C2=C3OC4C(C)CC3(OC2=O)C(/C=C\C1=O)C4O (centres unmarked) [atrop-abyssomicin C], the antibiotic activity is given as “high antibiotic activity”.
